Columns and labels:
Type in all cases: in vivo
[1] = tested on: ducksalad (Heteranthera limosa); assay: Test B flooded paddy test, ducksalad; conditions: 250 g ai/ha, Flood, scale of 0 to 100 where 0 is no effect and 100 is complete control, visually evaluated after 10 to 14 days, read-out: Plant response rating, Ducksalad
Procedure: Plant species in the flooded paddy test selected from barnyardgrass (Echinochloa crusgalli), ducksalad (Heteranthera limosa), rice (Oryza sativa), and sedge, umbrella (small-flower umbrella sedge, Cyperus difformis) were grown to the 2-leaf stage for testing. At time of treatment, test pots were flooded to 3 cm above the soil surface, treated by application of test compounds directly to the paddy water, and then maintained at that water depth for the duration of the test. Treated plants and controls were maintained in a greenhouse for 10 to 14 days, after which time all species were compared to controls and visually evaluated. Plant response ratings, summarized in Table B, are based on a scale of 0 to 100 where 0 is no effect and 100 is complete control. A dash (-) response means no test result.

[2] = tested on: blackgrass (Alopecurus myosuroides); assay: Test A postemergence, blackgrass; conditions: 0 to 100 scale, 10 days
From the text: (§1) Seeds of plant species selected from barnyardgrass (Echinochloa crus-galli), blackgrass (Alopecurus myosuroides), corn (Zea mays), foxtail, giant (giant foxtail, Setaria faberi), goosegrass (Eleusine indica), kochia (Bassia scoparia), oat, wild (wild oat, Avena fatua), pigweed, palmer (palmer amaranth, Amaranthus palmeri), pigweed, redroot (redroot pigweed, Amaranthus retroflexus), ragweed (common ragweed, Ambrosia artemisiifolia), ryegrass, Italian (Italian ryegrass, Lolium multiflorum), soybean (Glycine max), and wheat (Triticum aestivum) were planted into a blend of loam soil and sand and treated preemergence with a directed soil spray using test chemicals formulated in a non-phytotoxic solvent mixture which included a surfactant.
(§2) At the same time, plants selected from these crop and weed species and also galium (catchweed bedstraw, Galium aparine) and horseweed (Erigeron canadensis) were planted in pots containing the same blend of loam soil and sand and treated with postemergence applications of test chemicals formulated in the same manner. Plants ranged in height from 2 to 10 cm and were in the one- to two-leaf stage for the postemergence treatment. Treated plants and untreated controls were maintained in a greenhouse for 10 days, after which time all treated plants were compared to untreated controls and visually evaluated for injury. Plant response ratings, summarized in Table A, are based on a 0 to 100 scale where 0 is no effect and 100 is complete control. A dash (-) response means no test result.

[3] = tested on: foxtail, giant (giant foxtail, Setaria faberi); assay: Test A postemergence, giant foxtail; conditions: post-emergence, 240 h, 0 to 100 scale, 10 days, read-out: Plant response rating, Foxtail, Giant; for pest or weed control at 31 g/ha: 31 g ai/ha; for pest or weed control at 125 g/ha: 125 g ai/ha
From the text: as §1, §2

corn (Zea mays) = assay: Test A postemergence, corn; conditions: post-emergence, 240 h, 0 to 100 scale, 10 days; for Corn plant response rating (crop injury, 0 = no effect, 100 = complete kill) at 31 g/ha: 31 g ai/ha; for Corn plant response rating (crop injury, 0 = no effect, 100 = complete kill) at 125 g/ha: 125 g ai/ha
From the text: as §1, §2

[4] = tested on: ragweed (common ragweed, Ambrosia artemisiifolia); assay: Test A preemergence, ragweed; conditions: pre-emergence, 240 h, 0 to 100 scale, 10 days, read-out: Plant response rating, Ragweed; for pest or weed control at 31 g/ha: 31 g ai/ha; for pest or weed control at 125 g/ha: 125 g ai/ha
From the text: as §1, §2

[5] = tested on: foxtail, giant (giant foxtail, Setaria faberi); assay: Test A preemergence, giant foxtail; conditions: pre-emergence, 240 h, 0 to 100 scale, 10 days, read-out: Plant response rating, Foxtail, Giant; for pest or weed control at 31 g/ha: 31 g ai/ha; for pest or weed control at 125 g/ha: 125 g ai/ha
From the text: as §1, §2

kochia (Bassia scoparia) = assay: Test A postemergence, kochia; conditions: post-emergence, 240 h, 0 to 100 scale, 10 days, read-out: Plant response rating, Kochia; for pest or weed control at 31 g/ha: 31 g ai/ha; for pest or weed control at 125 g/ha: 125 g ai/ha
From the text: as §1, §2

[6] = tested on: oat, wild (wild oat, Avena fatua); assay: Test A postemergence, wild oat; conditions: 0 to 100 scale, 10 days
From the text: as §1, §2

[7] = tested on: goosegrass (Eleusine indica); assay: Test A preemergence, goosegrass; conditions: 0 to 100 scale, 10 days
From the text: as §1, §2

[8] = tested on: oat, wild (wild oat, Avena fatua); assay: Test A preemergence, wild oat; conditions: 0 to 100 scale, 10 days
From the text: as §1, §2

| SMILES | pest or weed control at 250 g/ha [1] [%] | Plant response rating, Blackgrass ([2]; 31 g ai/ha) | Plant response rating, Blackgrass ([2]; 125 g ai/ha) | pest or weed control at 31 g/ha [3] [%] | pest or weed control at 125 g/ha [3] [%] | Corn plant response rating (crop injury, 0 = no effect, 100 = complete kill) at 31 g/ha (corn (Zea mays)) [%] | Corn plant response rating (crop injury, 0 = no effect, 100 = complete kill) at 125 g/ha (corn (Zea mays)) [%] | pest or weed control at 31 g/ha [4] [%] | pest or weed control at 125 g/ha [4] [%] | pest or weed control at 31 g/ha [5] [%] | pest or weed control at 125 g/ha [5] [%] | pest or weed control at 31 g/ha (kochia (Bassia scoparia)) [%] | pest or weed control at 125 g/ha (kochia (Bassia scoparia)) [%] | Plant response rating, Oat, Wild ([6]; 31 g ai/ha) | Plant response rating, Oat, Wild ([6]; 125 g ai/ha) | Plant response rating, Goosegrass ([7]; 31 g ai/ha) | Plant response rating, Goosegrass ([7]; 125 g ai/ha) | Plant response rating, Oat, Wild ([8]; 31 g ai/ha) | Plant response rating, Oat, Wild ([8]; 125 g ai/ha) |
| --- | --- | --- | --- | --- | --- | --- | --- | --- | --- | --- | --- | --- | --- | --- | --- | --- | --- | --- | --- |
| C#CCOC1CCN(c2cc(NS(=O)(=O)C(F)(F)F)c(C)cc2C)C1=O (stereo not drawn) [Compound 1, N-[2,4-dimethyl-5-[2-oxo-3-(2-propyn-1-yloxy)-1-pyrrolidinyl]phenyl]-1,1,1-trifluoromethanesulfonamide] | 80 | 10 | 50 | 40 | 60 | 50 | 90 | 30 | 90 | 90 | 100 | 30 | 80 |  |  |  |  |  |  |
| C=CCOC1CCN(c2cc(NS(=O)(=O)C(F)(F)F)c(C)cc2C)C1=O (stereo not drawn) [Compound 2, N-[2,4-dimethyl-5-[2-oxo-3-(2-propen-1-yloxy)-1-pyrrolidinyl]phenyl]-1,1,1-trifluoromethanesulfonamide] | 75 | 20 | 40 | 30 | 50 | 0 | 90 | 20 | 80 | 100 | 100 | 20 | 60 |  |  |  |  |  |  |
| Cc1cc(C)c(N2CCC(OC3CC3)C2=O)cc1NS(=O)(=O)C(F)(F)F (stereo not drawn) [Compound 3, N-[5-[3-(cyclopropyloxy)-2-oxo-1-pyrrolidinyl]-2,4-dimethylphenyl]-1,1,1-trifluoromethanesulfonamide] | 98 | 40 | 70 | 70 | 90 | 90 | 90 | 90 | 100 | 100 | 100 | 50 | 100 | 40 | 80 | 70 | 100 | 70 | 100 |
| Cc1cc(C)c(N2CCC(OC3CCC3)C2=O)cc1NS(=O)(=O)C(F)(F)F (stereo not drawn) [Compound 4, N-[5-[3-(cyclobutyloxy)-2-oxo-1-pyrrolidinyl]-2,4-dimethylphenyl]-1,1,1-trifluoromethanesulfonamide] | 100 |  |  | 40 | 80 | 90 | 0 | 90 | 100 | 100 | 100 | 60 | 90 | 30 | 60 | 100 | 100 | 80 | 100 |
| Cc1cc(C)c(N(COC(=O)C(C)(C)C)S(=O)(=O)C(F)(F)F)cc1N1CCC(OC2CCCC2)C1=O (stereo not drawn) [Compound 5, [[5-[3-(cyclopentyloxy)-2-oxo-1-pyrrolidinyl]-2,4-dimethylphenyl][(trifluoromethyl)sulfonyl]amino]methyl 2,2-dimethylpropanoate] | 95 | 0 | 0 | 0 | 80 | 0 | 80 | 0 | 40 | 0 | 50 | 20 | 70 | 20 | 30 | 10 | 90 | 0 | 40 |
| Cc1cc(C)c(N2CCC(OC3CCCC3)C2=O)cc1NS(=O)(=O)C(F)(F)F (stereo not drawn) [Compound 6, N-[5-[3-(cyclopentyloxy)-2-oxo-1-pyrrolidinyl]-2,4-dimethylphenyl]-1,1,1-trifluoromethanesulfonamide] | 85 | 0 | 40 | 10 | 60 | 0 | 90 | 30 | 90 | 100 | 100 | 20 | 80 | 0 | 20 | 90 | 100 | 70 | 90 |
| Cc1cc(C)c(N(COC(=O)C(C)(C)C)S(=O)(=O)C(F)(F)F)cc1N1CCC(OC2CC2)C1=O (stereo not drawn) [Compound 7, [[5-[3-(cyclopropyloxy)-2-oxo-1-pyrrolidinyl]-2,4-dimethylphenyl][(trifluoromethyl)sulfonyl]amino]methyl 2,2-dimethylpropanoate] | 95 | 20 | 50 | 60 | 90 | 90 | 90 | 30 | 90 | 90 | 90 | 70 | 80 | 30 | 70 | 80 | 100 | 20 | 100 |
| Cc1cc(C)c(N(COC(=O)C(C)(C)C)S(=O)(=O)C(F)(F)F)cc1N1CCC(OC2CCC2)C1=O (stereo not drawn) [Compound 8, [[5-[3-(cyclobutyloxy)-2-oxo-1-pyrrolidinyl]-2,4-dimethylphenyl][(trifluoromethyl)sulfonyl]amino]methyl 2,2-dimethylpropanoate] | 95 | 30 | 40 | 30 | 80 | 30 | 80 | 20 | 90 | 90 | 100 | 60 | 80 | 10 | 30 | 70 | 100 | 0 | 70 |

Reference: patent US20240158348A1, “HERBICIDAL CYCLIC AMIDES N-SUBSTITUTED WITH A HALOALKYLSULFONYLANILIDE GROUP” (FMC Corporation, priority 2021, published 2024)
